Results: the NIST ThermoML archive (doi:10.1021/je500431h)

Settings: 101 kPa, Liquid; for electrical conductivity: conductivity meter LF 340 and a standard conductivity cell TetraCon; for mass density: Pycnometric method

C=CCn1cc[n+](CCOC)c1.O=S(=O)([N-]S(=O)(=O)C(F)(F)F)C(F)(F)F
Settings | electrical conductivity [S/m] | mass density [kg/m3] | viscosity [mPa·s]
308.7 K | 0.546 | – | –
309 K | – | 1437 | 23.7
313.3 K | 0.627 | – | –
314 K | – | 1432.3 | 20.3
317 K | – | 1429.6 | 17.8
318.1 K | 0.72 | – | –
323.3 K | 0.828 | – | –
323.5 K | – | 1423.5 | 14.6
327.9 K | 0.935 | – | –
328 K | – | 1419.4 | 13.1
332.9 K | 1.06 | – | –
334 K | – | 1413.9 | 11.2
337.6 K | 1.18 | – | –
338.5 K | – | 1409.9 | 10
343 K | 1.33 | – | –
344 K | – | 1404.9 | 8.8
348 K | – | 1401.3 | 8.2
348.1 K | 1.48 | – | –
352 K | 1.6 | – | –
354.2 K | – | 1395.8 | 7
